{
  "source": "patent US20240408274A1",
  "about": "“STENTS AND METHODS OF USE” (UNIVERSITY OF CONNECTICUT, priority 2021, published 2024)",
  "test_system": "Urothelial cell",
  "assay": "Urothelial cell scratch assay (wound assay)",
  "type": "cell-based",
  "settings": "at 48 hours; FIGS. 7A-7B",
  "source_text": "As used herein a “scratch assay,” (i.e., a wound assay) is a method to measure two-dimensional cell migration. Six growth factors were selected and tested: EGF, FGF-2, PDGF, TGF-β1, and VEGF.",
  "data": [
    {"substance": "EGF: epidermal growth factor, growth factor tested in urothelial scratch assay (NSDSECPLSHDGYCLHDGVCMYIEALDKYACNCVVGYIGERCQYRDLKWWELR; UniProt P01133 971-1023, looked up)", "values": [
      {"measurement": "wound gap coverage", "result": "increase"}
    ]},
    {"substance": "IGF-1: insulin-like growth factor 1, growth factor tested in urothelial scratch assay", "values": [
      {"measurement": "wound gap coverage", "result": "increase"}
    ]}
  ]
}
